Legend:
Settings in all cases: read-out: % Enzyme Activity (relative to DMSO control), 10 uM
[1] = target: NEK11 (Homo sapiens, UniProt Q8NG66); assay: HotSpot kinase assay
Text: (§1) Additionally, a 10-dose dilution series of staurosporine and other enzyme-appropriate compounds were included as positive control inhibitors.

[2] = target: KDR/VEGFR2 (Homo sapiens, UniProt P35968); assay: HotSpot kinase assay
[3] = target: GRK3 (Homo sapiens, UniProt P35626); assay: HotSpot kinase assay
Text: as §1

[4] = target: COT1/MAP3K8 (Homo sapiens, UniProt P41279); assay: HotSpot kinase assay
Text: as §1

[5] = target: DYRK1B (Homo sapiens, UniProt Q9Y463); assay: HotSpot kinase assay
DYRK1B, sequence (Q9Y463 whole entry): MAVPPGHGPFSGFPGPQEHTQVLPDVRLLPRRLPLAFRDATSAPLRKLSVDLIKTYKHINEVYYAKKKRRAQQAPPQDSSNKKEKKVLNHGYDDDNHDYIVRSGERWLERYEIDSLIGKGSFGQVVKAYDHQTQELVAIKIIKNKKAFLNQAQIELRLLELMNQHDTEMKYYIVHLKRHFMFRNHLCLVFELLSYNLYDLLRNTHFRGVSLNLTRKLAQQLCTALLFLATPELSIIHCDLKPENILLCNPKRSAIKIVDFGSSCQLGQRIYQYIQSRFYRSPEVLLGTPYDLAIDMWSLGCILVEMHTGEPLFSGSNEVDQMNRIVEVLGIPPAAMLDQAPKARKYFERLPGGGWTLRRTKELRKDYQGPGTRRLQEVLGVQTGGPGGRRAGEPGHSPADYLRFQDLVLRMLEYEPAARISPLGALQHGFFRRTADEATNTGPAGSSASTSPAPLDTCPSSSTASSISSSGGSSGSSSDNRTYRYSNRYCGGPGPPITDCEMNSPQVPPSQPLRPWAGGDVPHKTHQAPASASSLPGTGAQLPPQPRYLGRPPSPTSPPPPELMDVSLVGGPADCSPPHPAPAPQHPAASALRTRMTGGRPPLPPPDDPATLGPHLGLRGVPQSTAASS
Text: as §1

[6] = target: EPHA3 (Homo sapiens, UniProt P29320); assay: HotSpot kinase assay
Text: as §1

[7] = target: AKT2 (Homo sapiens, UniProt P31751); assay: HotSpot kinase assay
AKT2, sequence (P31751 whole entry): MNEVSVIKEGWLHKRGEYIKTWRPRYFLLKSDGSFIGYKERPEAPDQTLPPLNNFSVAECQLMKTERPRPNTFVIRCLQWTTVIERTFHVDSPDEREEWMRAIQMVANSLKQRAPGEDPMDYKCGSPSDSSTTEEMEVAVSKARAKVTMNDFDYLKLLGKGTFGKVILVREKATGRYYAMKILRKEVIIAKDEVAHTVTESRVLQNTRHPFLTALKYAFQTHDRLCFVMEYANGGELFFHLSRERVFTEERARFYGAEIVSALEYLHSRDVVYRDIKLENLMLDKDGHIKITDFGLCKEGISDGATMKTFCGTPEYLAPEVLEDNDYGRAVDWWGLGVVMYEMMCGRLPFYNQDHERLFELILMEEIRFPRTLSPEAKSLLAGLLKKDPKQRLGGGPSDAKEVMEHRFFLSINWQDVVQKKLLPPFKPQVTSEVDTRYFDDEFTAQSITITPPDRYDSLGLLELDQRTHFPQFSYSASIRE
Text: as §1

[8] = target: PDK2/PDHK2 (Homo sapiens, UniProt Q15119); assay: HotSpot kinase assay
[9] = target: CAMKK2 (Homo sapiens, UniProt Q96RR4); assay: HotSpot kinase assay
Text: as §1

[10] = target: MLK4 (Homo sapiens, UniProt Q5TCX8); assay: HotSpot kinase assay
[11] = target: EPHA6 (Homo sapiens, UniProt Q9UF33); assay: HotSpot kinase assay
[12] = target: CAMK1d (Homo sapiens, UniProt Q8IU85); assay: HotSpot kinase assay
CAMK1d, sequence (Q8IU85 whole entry): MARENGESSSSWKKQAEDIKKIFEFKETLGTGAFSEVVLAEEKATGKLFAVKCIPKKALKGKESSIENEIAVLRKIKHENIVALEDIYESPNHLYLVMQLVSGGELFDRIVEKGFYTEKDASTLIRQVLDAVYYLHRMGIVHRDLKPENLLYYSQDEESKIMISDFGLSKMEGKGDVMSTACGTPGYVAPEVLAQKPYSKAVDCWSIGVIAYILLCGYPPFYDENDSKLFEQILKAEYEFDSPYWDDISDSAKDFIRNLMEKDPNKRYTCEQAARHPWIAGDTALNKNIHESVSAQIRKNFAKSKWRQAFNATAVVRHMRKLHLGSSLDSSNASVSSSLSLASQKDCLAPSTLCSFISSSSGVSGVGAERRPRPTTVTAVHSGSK
Text: as §1

[13] = target: PDK4/PDHK4 (Homo sapiens, UniProt Q16654); assay: HotSpot kinase assay
Text: as §1

[14] = target: SSTK/TSSK6 (Homo sapiens, UniProt Q9BXA6); assay: HotSpot kinase assay
SSTK/TSSK6, sequence (Q9BXA6 whole entry): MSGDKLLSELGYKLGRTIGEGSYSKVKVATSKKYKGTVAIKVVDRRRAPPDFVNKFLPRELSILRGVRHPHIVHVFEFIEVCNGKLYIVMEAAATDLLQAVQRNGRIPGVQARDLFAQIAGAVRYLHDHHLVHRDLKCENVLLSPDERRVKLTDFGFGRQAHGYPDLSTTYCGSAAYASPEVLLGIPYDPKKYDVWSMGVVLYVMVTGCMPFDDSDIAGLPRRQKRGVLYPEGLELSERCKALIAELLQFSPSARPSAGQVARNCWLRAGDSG

[15] = target: JAK3 (Homo sapiens, UniProt P52333); assay: HotSpot kinase assay
[16] = target: LYN (Homo sapiens, UniProt P07948); assay: HotSpot kinase assay
Text: as §1

[17] = target: PLK1 (Homo sapiens, UniProt P53350); assay: HotSpot kinase assay
PLK1, sequence (P53350 whole entry): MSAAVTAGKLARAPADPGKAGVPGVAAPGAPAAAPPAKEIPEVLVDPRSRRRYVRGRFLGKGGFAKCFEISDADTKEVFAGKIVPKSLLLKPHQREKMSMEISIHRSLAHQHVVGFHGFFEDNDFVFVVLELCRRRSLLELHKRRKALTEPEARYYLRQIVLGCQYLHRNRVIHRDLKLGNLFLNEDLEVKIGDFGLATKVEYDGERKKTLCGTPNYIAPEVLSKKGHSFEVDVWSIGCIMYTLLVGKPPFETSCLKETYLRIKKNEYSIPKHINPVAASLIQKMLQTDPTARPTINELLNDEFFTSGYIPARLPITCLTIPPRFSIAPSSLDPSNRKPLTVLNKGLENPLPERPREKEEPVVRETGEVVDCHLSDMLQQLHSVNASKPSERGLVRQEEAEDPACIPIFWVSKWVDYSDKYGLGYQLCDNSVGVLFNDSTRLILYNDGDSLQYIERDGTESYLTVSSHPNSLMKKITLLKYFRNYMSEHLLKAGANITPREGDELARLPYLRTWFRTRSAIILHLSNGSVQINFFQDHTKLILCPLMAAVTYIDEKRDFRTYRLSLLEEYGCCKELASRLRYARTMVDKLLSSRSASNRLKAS

[18] = target: LOK/STK10 (Homo sapiens, UniProt O94804); assay: HotSpot kinase assay
Text: as §1

[19] = target: RAF1 (Homo sapiens, UniProt P04049); assay: HotSpot kinase assay
RAF1, sequence (P04049 whole entry): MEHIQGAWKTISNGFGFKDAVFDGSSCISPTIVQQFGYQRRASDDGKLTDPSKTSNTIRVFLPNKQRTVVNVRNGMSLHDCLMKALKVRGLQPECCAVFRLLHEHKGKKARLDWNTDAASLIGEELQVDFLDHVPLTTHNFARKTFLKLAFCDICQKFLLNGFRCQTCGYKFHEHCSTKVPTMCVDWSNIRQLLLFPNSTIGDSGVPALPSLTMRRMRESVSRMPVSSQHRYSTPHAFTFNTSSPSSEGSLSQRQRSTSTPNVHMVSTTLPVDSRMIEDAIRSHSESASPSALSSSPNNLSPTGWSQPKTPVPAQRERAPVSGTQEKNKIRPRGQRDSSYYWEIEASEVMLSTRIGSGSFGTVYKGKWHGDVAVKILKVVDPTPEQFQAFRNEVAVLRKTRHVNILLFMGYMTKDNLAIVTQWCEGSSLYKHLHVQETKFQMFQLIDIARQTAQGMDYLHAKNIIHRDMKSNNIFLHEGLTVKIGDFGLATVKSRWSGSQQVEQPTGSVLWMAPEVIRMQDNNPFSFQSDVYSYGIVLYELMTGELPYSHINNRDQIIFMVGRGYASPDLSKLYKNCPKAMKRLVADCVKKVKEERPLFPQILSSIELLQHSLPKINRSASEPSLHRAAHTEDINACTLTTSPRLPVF

[20] = target: WNK2 (Homo sapiens, UniProt Q9Y3S1); assay: HotSpot kinase assay
[21] = target: EIF2AK2 (Homo sapiens, UniProt P19525); assay: HotSpot kinase assay
EIF2AK2, sequence (P19525 whole entry): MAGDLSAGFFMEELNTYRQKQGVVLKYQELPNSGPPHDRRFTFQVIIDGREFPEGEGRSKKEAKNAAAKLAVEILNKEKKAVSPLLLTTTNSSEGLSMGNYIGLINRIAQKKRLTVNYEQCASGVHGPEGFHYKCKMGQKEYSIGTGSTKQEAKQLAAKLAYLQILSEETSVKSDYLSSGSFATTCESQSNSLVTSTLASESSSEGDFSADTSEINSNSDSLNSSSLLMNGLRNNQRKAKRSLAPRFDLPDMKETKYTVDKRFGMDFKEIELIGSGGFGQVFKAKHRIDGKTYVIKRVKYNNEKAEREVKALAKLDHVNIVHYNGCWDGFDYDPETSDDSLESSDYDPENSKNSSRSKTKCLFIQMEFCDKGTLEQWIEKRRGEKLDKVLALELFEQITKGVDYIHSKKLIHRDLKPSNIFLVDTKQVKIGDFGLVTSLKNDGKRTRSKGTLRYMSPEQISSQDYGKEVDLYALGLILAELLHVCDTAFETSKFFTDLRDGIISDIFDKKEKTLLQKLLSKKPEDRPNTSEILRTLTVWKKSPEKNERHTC
Text: as §1

[22] = target: c-Kit (Homo sapiens, UniProt P10721); assay: HotSpot kinase assay
Text: as §1

[23] = target: STK33 (Homo sapiens, UniProt Q9BYT3); assay: HotSpot kinase assay
[24] = target: GRK7 (Homo sapiens, UniProt Q8WTQ7); assay: HotSpot kinase assay
Text: as §1

[25] = target: AMPK (A2/B1/G2) (Homo sapiens, UniProt P54646); assay: HotSpot kinase assay
Text: as §1

[26] = target: TESK1 (Homo sapiens, UniProt Q15569); assay: HotSpot kinase assay
Text: as §1

[27] = target: NEK1 (Homo sapiens, UniProt Q96PY6); assay: HotSpot kinase assay
Text: as §1

[28] = target: CDK18/cyclin Y (PCTK3) (Homo sapiens, UniProt Q07002); assay: HotSpot kinase assay
CDK18/cyclin Y (PCTK3), sequence (Q07002 whole entry): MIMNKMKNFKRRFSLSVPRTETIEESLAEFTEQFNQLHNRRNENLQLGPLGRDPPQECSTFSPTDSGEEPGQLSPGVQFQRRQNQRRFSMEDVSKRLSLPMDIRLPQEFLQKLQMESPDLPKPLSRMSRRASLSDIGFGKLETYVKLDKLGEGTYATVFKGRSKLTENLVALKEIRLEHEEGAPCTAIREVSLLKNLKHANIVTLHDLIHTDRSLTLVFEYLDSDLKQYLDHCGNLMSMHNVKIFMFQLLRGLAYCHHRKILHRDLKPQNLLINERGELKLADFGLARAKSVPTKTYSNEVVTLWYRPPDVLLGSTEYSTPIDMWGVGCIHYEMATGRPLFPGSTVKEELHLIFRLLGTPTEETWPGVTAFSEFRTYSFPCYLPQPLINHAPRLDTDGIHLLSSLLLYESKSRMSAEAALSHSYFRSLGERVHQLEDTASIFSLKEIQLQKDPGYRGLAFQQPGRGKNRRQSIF
CDK18/cyclin Y (PCTK3), sequence (Q8ND76 whole entry partner): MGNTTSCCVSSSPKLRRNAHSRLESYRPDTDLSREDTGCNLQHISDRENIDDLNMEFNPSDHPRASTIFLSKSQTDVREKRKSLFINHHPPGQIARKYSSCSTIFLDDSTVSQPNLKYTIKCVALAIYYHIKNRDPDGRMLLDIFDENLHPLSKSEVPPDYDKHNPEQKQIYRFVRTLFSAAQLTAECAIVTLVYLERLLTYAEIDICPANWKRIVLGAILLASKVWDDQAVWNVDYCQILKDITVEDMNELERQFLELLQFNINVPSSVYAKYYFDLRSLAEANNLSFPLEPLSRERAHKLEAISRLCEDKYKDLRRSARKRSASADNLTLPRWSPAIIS
Text: as §1

[29] = target: RSK3 (Homo sapiens, UniProt Q15349); assay: HotSpot kinase assay
Text: as §1

[30] = target: GRK5 (Homo sapiens, UniProt P34947); assay: HotSpot kinase assay
[31] = target: JNK2 (Homo sapiens, UniProt P45984); assay: HotSpot kinase assay
Text: as §1

[32] = target: CDK17/cyclin Y (PCTK2) (Homo sapiens, UniProt Q00537); assay: HotSpot kinase assay
Text: as §1

[33] = target: PLK2 (Homo sapiens, UniProt Q9NYY3); assay: HotSpot kinase assay
[34] = target: CDK16/cyclin Y (PCTAIRE) (Homo sapiens, UniProt Q00536); assay: biochemical
Text: as §1

[35] = target: MYLK3 (Homo sapiens, UniProt Q32MK0); assay: HotSpot kinase assay
[36] = target: NEK7 (Homo sapiens, UniProt Q8TDX7); assay: HotSpot kinase assay
Text: as §1

[37] = target: EIF2AK3 (Homo sapiens, UniProt Q9NZJ5); assay: HotSpot kinase assay
Text: as §1

[38] = target: PIM2 (Homo sapiens, UniProt Q9P1W9); assay: HotSpot kinase assay
Text: as §1

[39] = target: MSSK1/STK23 (Homo sapiens, UniProt Q9UPE1); assay: HotSpot kinase assay

COT1/MAP3K8, sequence (P41279 whole entry): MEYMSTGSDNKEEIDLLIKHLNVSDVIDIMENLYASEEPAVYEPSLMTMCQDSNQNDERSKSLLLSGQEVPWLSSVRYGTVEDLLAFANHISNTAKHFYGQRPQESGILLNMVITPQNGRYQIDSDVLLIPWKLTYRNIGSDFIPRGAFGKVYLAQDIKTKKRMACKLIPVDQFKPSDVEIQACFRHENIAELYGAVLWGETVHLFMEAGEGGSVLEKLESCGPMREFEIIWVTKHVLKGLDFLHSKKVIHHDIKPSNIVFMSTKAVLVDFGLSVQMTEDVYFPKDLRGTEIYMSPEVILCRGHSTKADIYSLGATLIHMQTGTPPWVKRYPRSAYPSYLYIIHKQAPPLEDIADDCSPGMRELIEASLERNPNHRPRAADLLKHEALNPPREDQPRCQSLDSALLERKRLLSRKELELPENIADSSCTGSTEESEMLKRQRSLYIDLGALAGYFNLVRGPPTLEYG

C#C[C@@](C)(c1ccc(Cl)cc1)c1csc(NC(=O)c2c(F)cc(N3CCNCC3)cc2F)n1 (stereo in doubt) [DF-003]
remaining activity at 10 µM [1]: 75.3%
remaining activity at 10 µM [2]: 76%
remaining activity at 10 µM [3]: 111%
remaining activity at 10 µM [4]: 20.7%
remaining activity at 10 µM [5]: 88.5%
remaining activity at 10 µM [6]: 117%
remaining activity at 10 µM [7]: 93.6%
remaining activity at 10 µM [8]: 85.3%
remaining activity at 10 µM [9]: 98.9%
remaining activity at 10 µM [10]: 85.8%
remaining activity at 10 µM [11]: 79.3%
remaining activity at 10 µM [12]: 39.1%
remaining activity at 10 µM [13]: 103%
remaining activity at 10 µM [14]: 98.4%
remaining activity at 10 µM [15]: 98.8%
remaining activity at 10 µM [16]: 137%
remaining activity at 10 µM [17]: 114%
remaining activity at 10 µM [18]: 62.4%
remaining activity at 10 µM [19]: 94.2%
remaining activity at 10 µM [20]: 104%
remaining activity at 10 µM [21]: 105%
remaining activity at 10 µM [22]: 67.6%
remaining activity at 10 µM [23]: 93.9%
remaining activity at 10 µM [24]: 114%
remaining activity at 10 µM [25]: 82.9%
remaining activity at 10 µM [26]: 82.9%
remaining activity at 10 µM [27]: 106%
remaining activity at 10 µM [28]: 92.3%
remaining activity at 10 µM [29]: 88.8%
remaining activity at 10 µM [30]: 117%
remaining activity at 10 µM [31]: 107%
remaining activity at 10 µM [32]: 82.4%
remaining activity at 10 µM [33]: 109%
remaining activity at 10 µM [34]: 91.8%
remaining activity at 10 µM [35]: 87.3%
remaining activity at 10 µM [36]: 118%
remaining activity at 10 µM [37]: 81.9%
remaining activity at 10 µM [38]: 87.6%
remaining activity at 10 µM [39]: 84.2%
